Measured values: PMC13210772, “Dual FLT3/MAPK14 Proteolysis-Targeting Chimera (PROTAC) Induces Potent Acute Myeloid Leukemia Cell Death” (Pharmaceuticals, 2026)

Assays:
Test in all cases: NanoBRET CELLinib128
[1] = target: T1, AURKA (Homo sapiens, UniProt O14965); type: binding; settings: 100% no effect, 0% complete tracer displacement, read-out: Tracer bound
T1 construct: Full-length kinase ORF (Promega, Madison, WI, USA) cloned in frame with a NanoLuc-vector was transfected into HEK293T cells; host or cells: HEK293T
Procedure, shortened: (§1)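 Live-cell NanoBRET target engagement; HEK293T transfected with full-length NLuc-kinase, 20 h expression. Single-shot 1 μM compound + tracer, 2 h, 37 °C, 5% CO2. BRET read 450/610 nm; normalized to tracer/background ctrl, mean ± SD.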

[2] = target: T2, AURKC (Homo sapiens, UniProt Q9UQB9); type: binding; settings: 100% no effect, 0% complete tracer displacement, read-out: Tracer bound
T2 construct: Full-length kinase ORF (Promega, Madison, WI, USA) cloned in frame with a NanoLuc-vector was transfected into HEK293T cells; host or cells: HEK293T
Procedure, shortened: as §1

[3] = target: T3, BTK (Homo sapiens, UniProt Q06187); type: binding; settings: 1 µM; 100% no effect, 0% complete tracer displacement
T3 construct: Full-length kinase ORF (Promega, Madison, WI, USA) cloned in frame with a NanoLuc-vector was transfected into HEK293T cells; host or cells: HEK293T
Procedure, shortened: as §1

[4] = target: T4, DCLK3 (Homo sapiens, UniProt Q9C098); type: binding; settings: 100% no effect, 0% complete tracer displacement, read-out: Tracer bound
T4 construct: Full-length kinase ORF (Promega, Madison, WI, USA) cloned in frame with a NanoLuc-vector was transfected into HEK293T cells; host or cells: HEK293T
Procedure, shortened: as §1

[5] = target: T5, FGFR1 (Homo sapiens, UniProt P11362); type: binding; settings: 100% no effect, 0% complete tracer displacement, read-out: Tracer bound
T5 construct: Full-length kinase ORF (Promega, Madison, WI, USA) cloned in frame with a NanoLuc-vector was transfected into HEK293T cells; host or cells: HEK293T
Procedure, shortened: as §1

[6] = target: T6, IRAK3 (Homo sapiens, UniProt Q9Y616); type: binding; settings: 100% no effect, 0% complete tracer displacement, read-out: Tracer bound
T6 construct: Full-length kinase ORF (Promega, Madison, WI, USA) cloned in frame with a NanoLuc-vector was transfected into HEK293T cells; host or cells: HEK293T
Procedure, shortened: as §1

[7] = target: T7, MAP3K9 (Homo sapiens, UniProt P80192); type: binding; settings: 100% no effect, 0% complete tracer displacement, read-out: Tracer bound
T7 construct: Full-length kinase ORF (Promega, Madison, WI, USA) cloned in frame with a NanoLuc-vector was transfected into HEK293T cells; host or cells: HEK293T
Procedure, shortened: as §1

[8] = target: T8, MAP4K2 (Homo sapiens, UniProt Q12851); type: binding; settings: 100% no effect, 0% complete tracer displacement, read-out: Tracer bound
T8 construct: Full-length kinase ORF (Promega, Madison, WI, USA) cloned in frame with a NanoLuc-vector was transfected into HEK293T cells; host or cells: HEK293T
Procedure, shortened: as §1

[9] = target: T9, MUSK (Homo sapiens, UniProt O15146); type: binding; settings: 100% no effect, 0% complete tracer displacement, read-out: Tracer bound
T9 construct: Full-length kinase ORF (Promega, Madison, WI, USA) cloned in frame with a NanoLuc-vector was transfected into HEK293T cells; host or cells: HEK293T
Procedure, shortened: as §1

[10] = target: T10, MYLK3 (Homo sapiens, UniProt Q32MK0); type: binding; settings: 100% no effect, 0% complete tracer displacement, read-out: Tracer bound
T10 construct: Full-length kinase ORF (Promega, Madison, WI, USA) cloned in frame with a NanoLuc-vector was transfected into HEK293T cells; host or cells: HEK293T
T10 sequence (Q32MK0 whole entry): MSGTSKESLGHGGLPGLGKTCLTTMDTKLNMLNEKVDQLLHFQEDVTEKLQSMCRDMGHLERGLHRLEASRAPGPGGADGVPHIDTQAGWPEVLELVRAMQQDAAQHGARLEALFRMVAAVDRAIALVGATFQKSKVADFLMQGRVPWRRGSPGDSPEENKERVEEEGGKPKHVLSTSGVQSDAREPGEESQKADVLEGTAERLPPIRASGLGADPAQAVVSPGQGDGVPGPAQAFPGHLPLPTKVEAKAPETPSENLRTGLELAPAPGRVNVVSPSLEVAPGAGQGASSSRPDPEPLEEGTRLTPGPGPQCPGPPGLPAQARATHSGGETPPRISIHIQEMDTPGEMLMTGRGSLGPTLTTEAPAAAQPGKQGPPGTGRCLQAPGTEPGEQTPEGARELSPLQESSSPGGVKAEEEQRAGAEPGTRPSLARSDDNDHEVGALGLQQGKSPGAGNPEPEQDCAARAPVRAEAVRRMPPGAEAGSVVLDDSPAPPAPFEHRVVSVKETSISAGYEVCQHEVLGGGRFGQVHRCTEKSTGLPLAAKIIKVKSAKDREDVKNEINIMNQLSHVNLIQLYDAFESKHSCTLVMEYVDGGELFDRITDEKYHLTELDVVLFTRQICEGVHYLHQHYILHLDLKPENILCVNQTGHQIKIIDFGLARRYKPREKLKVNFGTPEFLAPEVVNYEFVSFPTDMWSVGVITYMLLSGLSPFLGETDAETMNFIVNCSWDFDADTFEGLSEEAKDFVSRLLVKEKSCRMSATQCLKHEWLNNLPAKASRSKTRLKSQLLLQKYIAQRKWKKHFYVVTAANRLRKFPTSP
Procedure, shortened: as §1

[11] = target: T11, NEK1 (Homo sapiens, UniProt Q96PY6); type: binding; settings: 100% no effect, 0% complete tracer displacement, read-out: Tracer bound
T11 construct: Full-length kinase ORF (Promega, Madison, WI, USA) cloned in frame with a NanoLuc-vector was transfected into HEK293T cells; host or cells: HEK293T
T11 sequence (Q96PY6 whole entry): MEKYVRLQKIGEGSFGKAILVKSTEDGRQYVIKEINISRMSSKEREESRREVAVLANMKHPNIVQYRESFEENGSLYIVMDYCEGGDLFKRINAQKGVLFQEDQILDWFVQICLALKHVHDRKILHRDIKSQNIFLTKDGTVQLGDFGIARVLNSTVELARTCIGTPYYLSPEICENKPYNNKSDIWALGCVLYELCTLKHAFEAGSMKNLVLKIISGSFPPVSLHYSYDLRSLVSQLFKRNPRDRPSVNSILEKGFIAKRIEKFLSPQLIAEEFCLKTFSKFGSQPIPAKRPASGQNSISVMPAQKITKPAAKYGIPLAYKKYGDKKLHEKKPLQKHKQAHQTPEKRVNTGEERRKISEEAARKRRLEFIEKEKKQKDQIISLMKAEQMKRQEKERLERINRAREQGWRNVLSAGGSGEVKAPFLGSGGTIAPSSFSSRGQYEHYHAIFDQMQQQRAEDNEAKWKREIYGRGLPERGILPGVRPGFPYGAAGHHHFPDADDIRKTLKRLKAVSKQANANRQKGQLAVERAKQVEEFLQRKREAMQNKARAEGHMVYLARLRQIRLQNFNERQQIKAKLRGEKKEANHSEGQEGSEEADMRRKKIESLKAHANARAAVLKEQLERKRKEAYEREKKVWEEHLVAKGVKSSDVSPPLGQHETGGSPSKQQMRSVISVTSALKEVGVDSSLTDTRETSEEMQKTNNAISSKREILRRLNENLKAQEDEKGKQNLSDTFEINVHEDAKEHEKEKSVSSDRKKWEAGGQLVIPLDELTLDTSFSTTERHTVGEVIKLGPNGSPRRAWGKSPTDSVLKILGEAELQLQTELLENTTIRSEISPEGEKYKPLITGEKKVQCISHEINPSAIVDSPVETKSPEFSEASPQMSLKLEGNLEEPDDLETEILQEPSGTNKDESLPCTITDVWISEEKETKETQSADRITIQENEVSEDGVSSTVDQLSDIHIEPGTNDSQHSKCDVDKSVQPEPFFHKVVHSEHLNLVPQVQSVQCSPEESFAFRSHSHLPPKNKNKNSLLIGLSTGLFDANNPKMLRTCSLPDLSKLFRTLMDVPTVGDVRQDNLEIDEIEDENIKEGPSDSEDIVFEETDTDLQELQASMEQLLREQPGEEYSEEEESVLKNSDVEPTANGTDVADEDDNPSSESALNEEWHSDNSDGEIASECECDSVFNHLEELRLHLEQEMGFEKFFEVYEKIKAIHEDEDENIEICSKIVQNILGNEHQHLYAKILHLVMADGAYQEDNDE
Procedure, shortened: as §1

[12] = target: T12, NEK9 (Homo sapiens, UniProt Q8TD19); type: binding; settings: 100% no effect, 0% complete tracer displacement, read-out: Tracer bound
T12 construct: Full-length kinase ORF (Promega, Madison, WI, USA) cloned in frame with a NanoLuc-vector was transfected into HEK293T cells; host or cells: HEK293T
Procedure, shortened: as §1

[13] = target: T13, PAK4 (Homo sapiens, UniProt O96013); type: binding; settings: 100% no effect, 0% complete tracer displacement, read-out: Tracer bound
T13 construct: Full-length kinase ORF (Promega, Madison, WI, USA) cloned in frame with a NanoLuc-vector was transfected into HEK293T cells; host or cells: HEK293T
Procedure, shortened: as §1

[14] = target: T14, PAK6 (Homo sapiens, UniProt Q9NQU5); type: binding; settings: 100% no effect, 0% complete tracer displacement, read-out: Tracer bound
T14 construct: Full-length kinase ORF (Promega, Madison, WI, USA) cloned in frame with a NanoLuc-vector was transfected into HEK293T cells; host or cells: HEK293T
Procedure, shortened: as §1

[15] = target: T15, PRKAA2 (Homo sapiens, UniProt P54646); type: binding; settings: 100% no effect, 0% complete tracer displacement, read-out: Tracer bound
T15 construct: Full-length kinase ORF (Promega, Madison, WI, USA) cloned in frame with a NanoLuc-vector was transfected into HEK293T cells; host or cells: HEK293T
Procedure, shortened: as §1

[16] = target: T16, RPS6KA1 (Homo sapiens, UniProt Q15418); type: binding; settings: 100% no effect, 0% complete tracer displacement, read-out: Tracer bound
T16 construct: Full-length kinase ORF (Promega, Madison, WI, USA) cloned in frame with a NanoLuc-vector was transfected into HEK293T cells; host or cells: HEK293T
Procedure, shortened: as §1

[17] = target: T17, SRMS (Homo sapiens, UniProt Q9H3Y6); type: binding; settings: 100% no effect, 0% complete tracer displacement, read-out: Tracer bound
T17 construct: Full-length kinase ORF (Promega, Madison, WI, USA) cloned in frame with a NanoLuc-vector was transfected into HEK293T cells; host or cells: HEK293T
T17 sequence (Q9H3Y6 whole entry): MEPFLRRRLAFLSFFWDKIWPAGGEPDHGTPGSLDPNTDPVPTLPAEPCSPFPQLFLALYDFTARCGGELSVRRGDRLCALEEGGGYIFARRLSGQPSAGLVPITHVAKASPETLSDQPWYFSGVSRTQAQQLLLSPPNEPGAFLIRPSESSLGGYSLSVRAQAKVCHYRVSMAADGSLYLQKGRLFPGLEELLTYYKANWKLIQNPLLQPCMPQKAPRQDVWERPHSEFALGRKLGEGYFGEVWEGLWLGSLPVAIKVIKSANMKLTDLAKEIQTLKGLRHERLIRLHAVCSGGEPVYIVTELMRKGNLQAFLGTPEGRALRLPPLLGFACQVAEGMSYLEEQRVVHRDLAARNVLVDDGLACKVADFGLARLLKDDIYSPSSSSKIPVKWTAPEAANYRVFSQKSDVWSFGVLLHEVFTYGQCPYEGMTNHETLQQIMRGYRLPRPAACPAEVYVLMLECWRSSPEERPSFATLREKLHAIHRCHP
Procedure, shortened: as §1

[18] = target: T18, STK3 (Homo sapiens, UniProt Q13188); type: binding; settings: 100% no effect, 0% complete tracer displacement, read-out: Tracer bound
T18 construct: Full-length kinase ORF (Promega, Madison, WI, USA) cloned in frame with a NanoLuc-vector was transfected into HEK293T cells; host or cells: HEK293T
Procedure, shortened: as §1

[19] = target: T19, TBK1 (Homo sapiens, UniProt Q9UHD2); type: binding; settings: 100% no effect, 0% complete tracer displacement, read-out: Tracer bound
T19 construct: Full-length kinase ORF (Promega, Madison, WI, USA) cloned in frame with a NanoLuc-vector was transfected into HEK293T cells; host or cells: HEK293T
Procedure, shortened: as §1

[20] = target: T20, EPHB2 (Homo sapiens, UniProt P29323); type: binding; settings: 1 µM; 100% no effect, 0% complete tracer displacement
T20 construct: Full-length kinase ORF (Promega, Madison, WI, USA) cloned in frame with a NanoLuc-vector was transfected into HEK293T cells; host or cells: HEK293T

[21] = target: T21, EPHB3 (Homo sapiens, UniProt P54753); type: binding; settings: 100% no effect, 0% complete tracer displacement, read-out: Tracer bound
T21 construct: Full-length kinase ORF (Promega, Madison, WI, USA) cloned in frame with a NanoLuc-vector was transfected into HEK293T cells; host or cells: HEK293T

[22] = target: T22, TESK1 (Homo sapiens, UniProt Q15569); type: binding; settings: 100% no effect, 0% complete tracer displacement, read-out: Tracer bound
T22 construct: Full-length kinase ORF (Promega, Madison, WI, USA) cloned in frame with a NanoLuc-vector; host or cells: HEK293T

[23] = target: CAMK1 (Homo sapiens, UniProt Q14012); settings: read-out: Tracer bound
Sequence of CAMK1 (Q14012 whole entry): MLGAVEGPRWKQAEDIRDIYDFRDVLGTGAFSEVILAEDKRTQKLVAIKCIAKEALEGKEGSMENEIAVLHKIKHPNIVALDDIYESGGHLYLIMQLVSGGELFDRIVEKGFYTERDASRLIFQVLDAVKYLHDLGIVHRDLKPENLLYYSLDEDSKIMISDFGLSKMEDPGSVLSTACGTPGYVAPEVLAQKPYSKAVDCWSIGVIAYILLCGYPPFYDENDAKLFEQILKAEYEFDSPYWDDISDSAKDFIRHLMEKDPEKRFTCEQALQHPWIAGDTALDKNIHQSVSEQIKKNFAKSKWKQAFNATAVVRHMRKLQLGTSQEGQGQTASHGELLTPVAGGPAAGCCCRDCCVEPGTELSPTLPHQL

[24] = target: CSF1R (Homo sapiens, UniProt P07333); settings: read-out: Tracer bound
[25] = target: EPHB6 (Homo sapiens, UniProt O15197); settings: read-out: Tracer bound
Sequence of EPHB6 (O15197 32-1021): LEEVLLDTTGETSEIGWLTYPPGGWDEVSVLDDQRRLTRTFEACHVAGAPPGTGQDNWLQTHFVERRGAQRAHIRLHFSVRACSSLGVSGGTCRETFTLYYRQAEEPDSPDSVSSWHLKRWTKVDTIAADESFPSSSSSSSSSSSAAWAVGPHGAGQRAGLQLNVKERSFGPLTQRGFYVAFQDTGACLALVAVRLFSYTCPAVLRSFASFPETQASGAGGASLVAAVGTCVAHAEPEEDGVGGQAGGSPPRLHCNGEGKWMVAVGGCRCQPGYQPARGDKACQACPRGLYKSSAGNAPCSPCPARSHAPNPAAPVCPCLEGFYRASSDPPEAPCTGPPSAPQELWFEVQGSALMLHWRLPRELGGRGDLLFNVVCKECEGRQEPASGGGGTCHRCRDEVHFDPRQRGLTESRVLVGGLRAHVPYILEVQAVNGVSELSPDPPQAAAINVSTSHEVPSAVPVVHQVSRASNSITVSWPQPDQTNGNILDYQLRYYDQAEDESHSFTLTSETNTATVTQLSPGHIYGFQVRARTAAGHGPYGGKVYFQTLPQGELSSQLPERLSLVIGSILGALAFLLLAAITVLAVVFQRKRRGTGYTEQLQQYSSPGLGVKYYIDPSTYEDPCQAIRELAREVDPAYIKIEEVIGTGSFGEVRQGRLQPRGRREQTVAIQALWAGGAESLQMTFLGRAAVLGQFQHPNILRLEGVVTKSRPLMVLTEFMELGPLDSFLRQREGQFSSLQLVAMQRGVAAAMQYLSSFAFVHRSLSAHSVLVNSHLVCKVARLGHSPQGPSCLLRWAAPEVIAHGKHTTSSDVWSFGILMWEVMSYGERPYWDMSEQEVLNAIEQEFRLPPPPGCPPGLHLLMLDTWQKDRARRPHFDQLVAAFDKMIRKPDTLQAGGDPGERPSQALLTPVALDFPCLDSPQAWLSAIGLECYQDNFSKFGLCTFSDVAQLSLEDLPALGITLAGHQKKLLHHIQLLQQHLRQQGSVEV

[26] = target: FGR (Homo sapiens, UniProt P09769); settings: read-out: Tracer bound
[27] = target: LTK (Homo sapiens, UniProt P29376); settings: read-out: Tracer bound
Sequence of LTK (P29376 17-864): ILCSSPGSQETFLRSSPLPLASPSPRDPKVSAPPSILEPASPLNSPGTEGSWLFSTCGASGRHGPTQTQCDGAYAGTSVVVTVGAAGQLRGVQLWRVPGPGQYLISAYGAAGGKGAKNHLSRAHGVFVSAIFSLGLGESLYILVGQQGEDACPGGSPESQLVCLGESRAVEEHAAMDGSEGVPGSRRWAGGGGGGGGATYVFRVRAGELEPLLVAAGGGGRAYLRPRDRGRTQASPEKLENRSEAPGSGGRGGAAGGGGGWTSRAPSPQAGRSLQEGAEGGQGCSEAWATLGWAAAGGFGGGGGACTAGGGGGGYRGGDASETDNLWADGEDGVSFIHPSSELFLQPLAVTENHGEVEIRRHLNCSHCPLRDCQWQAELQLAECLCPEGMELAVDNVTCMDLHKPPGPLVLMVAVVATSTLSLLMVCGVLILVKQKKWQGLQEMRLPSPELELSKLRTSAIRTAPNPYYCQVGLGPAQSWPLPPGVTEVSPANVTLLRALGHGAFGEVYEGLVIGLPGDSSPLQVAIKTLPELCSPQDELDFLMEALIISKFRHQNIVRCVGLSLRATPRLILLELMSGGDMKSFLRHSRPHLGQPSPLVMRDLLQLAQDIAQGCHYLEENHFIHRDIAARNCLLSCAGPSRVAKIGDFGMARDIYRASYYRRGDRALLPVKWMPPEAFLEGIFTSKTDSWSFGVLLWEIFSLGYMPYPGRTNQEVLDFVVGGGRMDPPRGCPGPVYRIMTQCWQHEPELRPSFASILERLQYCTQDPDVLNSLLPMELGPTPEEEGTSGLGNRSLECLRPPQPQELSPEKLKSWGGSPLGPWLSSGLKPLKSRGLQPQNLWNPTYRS

[28] = target: RON (Homo sapiens, UniProt Q04912); settings: read-out: Tracer bound
[29] = target: SRC (Homo sapiens, UniProt P12931); settings: read-out: Tracer bound

Row | remaining activity at 1 µM [1] [%] | remaining activity at 1 µM [2] [%] | Tracer bound [3] [%] | remaining activity at 1 µM [4] [%] | remaining activity at 1 µM [5] [%] | remaining activity at 1 µM [6] [%] | remaining activity at 1 µM [7] [%] | remaining activity at 1 µM [8] [%] | remaining activity at 1 µM [9] [%] | remaining activity at 1 µM [10] [%] | remaining activity at 1 µM [11] [%] | remaining activity at 1 µM [13] [%] | remaining activity at 1 µM [14] [%] | remaining activity at 1 µM [15] [%] | remaining activity at 1 µM [16] [%] | remaining activity at 1 µM [17] [%] | remaining activity at 1 µM [18] [%] | remaining activity at 1 µM [19] [%] | Tracer bound [20] [%] | Structure (SMILES) | remaining activity at 1 µM [12] [%] | further results
1 | 120 | 102 | 120.0 | 113 | 69.2 | 120 | 111 | 107 | 6 | 119 | 110 | 97.7 | 116 | 109 | 108 | 94.4 | 99.3 | 107 | 49.5 | CNC(=O)c1cc(Oc2ccc(NC(=O)Nc3cc(C(C)(C)C)on3)cc2)ccn1 [MA68, reference compound] | 109 | remaining activity at 1 µM [21]: 44.8%; remaining activity at 1 µM [22]: 102%; remaining activity at 1 µM [23]: 100%; remaining activity at 1 µM [24]: 27.1%; remaining activity at 1 µM [25]: 99.5%; remaining activity at 1 µM [26]: 119%; remaining activity at 1 µM [27]: 102%; remaining activity at 1 µM [28]: 100%; remaining activity at 1 µM [29]: 120%
2 | 120 | 110 | 120.0 | 102 | 103 | 115 | 108 | 107 | 66 | 108 | 95.9 | 101 | 120 | 119 | 110 | 94.4 | 105 | 108 | 120.0 | Cc1ncsc1-c1ccc([C@H](C)NC(=O)[C@@H]2C[C@@H](O)CN2C(=O)[C@@H](NC(=O)[C@H]2CC[C@H](C(=O)N3CCN(CCNC(=O)c4cc(Oc5ccc(NC(=O)Nc6cc(C(C)(C)C)on6)cc5)ccn4)CC3)CC2)C(C)(C)C)cc1 [MA191, 4-(4-(3-(5-(tert-Butyl)isoxazol-3-yl)ureido)phenoxy)-N-(2-(4-(trans-4-(((S)-1-((2S,4R)-4-hydroxy-2-(((S)-1-(4-(4-methylthiazol-5-yl)phenyl)ethyl)carbamoyl)pyrrolidin-1-yl)-3,3-dimethyl-1-oxobutan-2-yl)carbamoyl)cyclohexanecarbonyl)piperazin-1-yl)ethyl)picolinamide] | 109 | remaining activity at 1 µM [21]: 120%; remaining activity at 1 µM [22]: 116%; remaining activity at 1 µM [23]: 93.6%; remaining activity at 1 µM [24]: 108%; remaining activity at 1 µM [25]: 120%; remaining activity at 1 µM [26]: 120%; remaining activity at 1 µM [27]: 101%; remaining activity at 1 µM [28]: 98.5%; remaining activity at 1 µM [29]: 120%
